Here are results for one molecule from patent publication US20230226199A1, “DENDRIMER COMPOSITIONS AND METHODS FOR DRUG DELIVERY” (Ashvattha Therapeutics, Inc., priority 2019, published 2023).

The assay concerns the target JAK1 (Homo sapiens, UniProt P23458). In words: JAK1 binding affinity. An excerpt:
An exemplary conjugation of JAK1 inhibitor Target-007 to a dendrimer is shown below (Structure XXXIII). JAK1 binding affinity of Target-007 is about […] and the binding affinity of dendrimer conjugated Target-007 is about […].

Chain of JAK1 (P23458 whole entry, species assumed): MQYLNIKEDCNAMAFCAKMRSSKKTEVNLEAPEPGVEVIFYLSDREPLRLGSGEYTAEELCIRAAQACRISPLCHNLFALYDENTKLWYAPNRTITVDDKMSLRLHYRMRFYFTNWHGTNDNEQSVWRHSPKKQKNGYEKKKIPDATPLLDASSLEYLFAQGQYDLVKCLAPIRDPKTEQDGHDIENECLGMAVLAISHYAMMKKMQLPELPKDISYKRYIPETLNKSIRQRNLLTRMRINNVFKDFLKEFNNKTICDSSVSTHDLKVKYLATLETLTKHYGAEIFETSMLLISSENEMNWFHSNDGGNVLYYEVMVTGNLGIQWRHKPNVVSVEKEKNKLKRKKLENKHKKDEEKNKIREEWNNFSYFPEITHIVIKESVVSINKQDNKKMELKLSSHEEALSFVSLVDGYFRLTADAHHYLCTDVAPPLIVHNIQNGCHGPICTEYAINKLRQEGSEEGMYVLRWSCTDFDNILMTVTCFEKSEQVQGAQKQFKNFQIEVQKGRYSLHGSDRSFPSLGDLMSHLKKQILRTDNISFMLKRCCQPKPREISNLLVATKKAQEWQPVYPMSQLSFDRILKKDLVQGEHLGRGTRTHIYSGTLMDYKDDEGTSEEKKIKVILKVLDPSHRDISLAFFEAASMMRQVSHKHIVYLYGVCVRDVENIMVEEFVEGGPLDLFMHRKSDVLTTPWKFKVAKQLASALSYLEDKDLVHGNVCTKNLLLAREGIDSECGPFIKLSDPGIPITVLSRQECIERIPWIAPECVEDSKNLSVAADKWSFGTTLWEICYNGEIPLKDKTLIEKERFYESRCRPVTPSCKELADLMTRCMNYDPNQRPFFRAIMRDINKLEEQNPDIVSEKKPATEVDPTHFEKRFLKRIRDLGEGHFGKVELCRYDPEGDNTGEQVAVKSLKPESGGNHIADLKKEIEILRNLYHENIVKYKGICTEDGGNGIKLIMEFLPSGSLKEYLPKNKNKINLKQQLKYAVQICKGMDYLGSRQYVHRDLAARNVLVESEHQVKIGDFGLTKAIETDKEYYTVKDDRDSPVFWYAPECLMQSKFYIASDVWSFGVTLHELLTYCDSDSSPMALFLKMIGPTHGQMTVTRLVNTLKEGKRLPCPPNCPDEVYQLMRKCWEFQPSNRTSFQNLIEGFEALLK

For the molecule `COc1cc(-c2nc3c(NCC4CCNCC4)c(Cl)cnc3[nH]2)c(F)cc1OCCOCCOCCOCCN=[N+]=[N-]` [Target-007], the Kd (as a rule, the equilibrium constant for the complex coming apart) is roughly 1 nM.
